The values below are quoted from earlier work in paper PMC9239115 (Amino acids, 2017).

One data set has as its system C6 glioma cell lines. The conditions noted are these: up to 200 μM; ref Pes 2013.
The conditions of data set [1]: degraded in the circulation by ACE; ref Rodgers et al. 2006.

For `NC[C@H]1C[C@@H](C(=O)O)C1` [ACCA, cis-3-(Aminomethyl)cyclobutanecarboxylic acid], the “Toxicity on C6 glioma cell lines” value in the data set with C6 glioma cell lines is “did not show any toxicity”.

Take `CC[C@H](C)[C@H](NC(=O)[C@H](Cc1ccc(O)cc1)NC(=O)[C@@H](NC(=O)[C@H](CCCNC(=N)N)NC(=O)[C@@H](N)CC(=O)O)C(C)C)C(=O)N[C@@H](Cc1c[nH]cn1)C(=O)N1CCC[C@H]1C(=O)O` [Ang-(1–7), Angiotensin-(1–7)]: in data set [1], the “Half-life in the circulation” value is given as 29 min.
